Measured values taken from ChEMBL document CHEMBL3085717, “Structural and thermodynamic dissection of linear motif recognition by the E. coli sliding clamp” (J Med Chem, 2013).
Peptide text beside a SMILES is read from it.

Experiment: Displacement of 5'-fluorescein(FAM)-QLDLF-OH from Escherichia coli AN1459 DNA polymerase 3beta by fluorescence polarization assay

IC50	Compound	Kd
4440 µM	CC(C)CCC(=O)N[C@@H](Cc1ccccc1)C(=O)O	–
247 µM	Ac-QLDAF-OH	115 µM
78.6 µM	Ac-QADLF-OH	36.7 µM
21 µM	Ac-QLDLL-OH	9.8 µM
1100 µM	CC(=O)N[C@@H](CC(C)C)C(=O)N[C@@H](Cc1ccccc1)C(=O)O (Ac-Leu-Phe-OH)	–
43.6 µM	Ac-NLDLF-OH	20.3 µM
10.4 µM	Ac-QLGLF-OH	4.9 µM
1220 µM	Ac-QLDVF-OH	567 µM
1070 µM	Ac-QLDLG-OH	498 µM
1520 µM	Ac-QLDGF-OH	711 µM
63.2 µM	CC(C)C[C@H](NC(=O)[C@H](CC(=O)O)NC(=O)[C@H](CC(C)C)NC(=O)[C@@H](N)CCC(N)=O)C(=O)N[C@@H](Cc1ccccc1)C(=O)O	29.5 µM
60.4 µM	Ac-QVDLF-OH	28.2 µM
222 µM	Ac-ELDLF-OH	104 µM
36.1 µM	Ac-QGDLF-OH	16.8 µM
1.9 µM	CC(=O)N[C@@H](CCC(N)=O)C(=O)N[C@@H](CC(C)C)C(=O)N[C@@H](CC(=O)O)C(=O)N[C@@H](CC(C)C)C(=O)N[C@@H](Cc1ccccc1)C(=O)O	0.9 µM
3.4 µM	Ac-QLALF-OH	1.6 µM
555 µM	Ac-QLDLA-OH	259 µM
976 µM	Ac-GLDLF-OH	456 µM
603 µM	Ac-ALDLF-OH	281 µM
